Data: US20240116971A1, “NMN AND DERIVATIVES FOR ITS USE IN THE TREATMENT OF DEPRESSION AND/OR ANXIETY IN PATIENTS HAVING A FORM OF PARKINSONISM” (Nuvamid SA, priority 2021, published 2024)

Test system: patient having MSA
Assay: UMSARS questionary before and after 6 months of NMN (beta) in one patient
Format: in vivo, human
Procedure: A person presenting with parkinsonism was given NMN (beta) for 6 months. […] They indicated difficulties to get out of bed in the morning and feeling low and depressed during the day. Administration of 125 mg of NMN (beta) as an oral tablet occurred once per day in the morning. The patient has taken the […] questionary before the beginning of the study (D0) and after 6 months of treatment.

[1] = 6 months vs D0, daily administration

SMILES: NC(=O)c1ccc[n+]([C@@H]2O[C@H](COP(=O)(O)O)[C@@H](O)[C@H]2O)c1 [beta-NMN, nicotinamide mononucleotide]
- items of the UMSARS questionary improved (6 months vs D0, 125 mg/day oral): improved items 1, 13, 14, 16-18, 22, 26, 28, 29, 34-36
- clinical signs related to motricity [1]: did not improve most of the clinical signs related to motricity apart from items 1, 13, 14 and 16
- symptoms related to the depression [1]: improved the symptoms related to the depression
